These results are taken from patent publication US8501911B2, “Methods of reducing inflammation and mucus hypersecretion” (Biomarck Pharmaceuticals, Ltd, priority 1999, dated 2013).

One assay concerns canine neutrophils. As to the kind of experiment: MPO secretion from isolated canine neutrophils stimulated with PMA+8-Br-cGMP. It is filed as cell-based. The procedure:
Isolation of PMNs from canine blood—The steps involved in isolating PMN include collecting 10 ml ACD anticoagulated blood; then layering 5 ml on 3.5 ml PMN isolation media while ensuring that the PMN isolation media (IM) was at room temperature (RI). Next, the blood was centrifuged at room temperature for 30′, 550×g at 1700 RPMs. The low lower white band was transferred into a 15 ml conical centrifuge tube (CCFT). Next, 2V HESS with 10% fetal bovine serum […] was added and centrifuged at room temperature for 10′, 400×g at 1400 RPMs. The pellet was then resuspended in 5 ml 1-1ESS with PBS. The cell suspension was added to 50 ml CCFT containing 20 ml of ice cold 0.88% NH4 Cland inverted two to three times. The resulting product was centrifuged for 10′, 800×g at 2000 RPMs, then aspirated and resuspended in ml HBSS with FBS. The prep was examined by counting and cytospin and preferably for whole blood, the cell number should be between 10^9-10^11 cells and for PMNs, cell number should be between 2-4×10^7 cells. See generally, Wang et al., J. Immunol., “Neutrophil-induced changes in the biomechanical properties of endothelial cells: roles of ICAM-1 and reactive oxygen species,” 6487-94 (2000).
(§1) MPO Colorimetric Enzyme Assay—Samples were assayed for MPO activity in 96 well round bottom microtiter plates using a sandwich ELISA kit (R & D Systems, Minneapolis, Minn.). Briefly, 20 microliters of sample is mixed with 180 microliters of substrate mixture containing 33 mM potassium phosphate, pH 6.0, […], 0.11 mM hydrogen peroxide, and 0.36 mM O-Diannisidine Dihydrochloride in an individual microtiter well. The final concentrations in the assay mixture are: 30 mM potassium phosphate, pH 6.0, 0.05% Triton X-100, 0.1 mM hydrogen peroxide, and 0.32 mM O-Diannisidine Dihydrochloride. […] Samples were assayed in duplicate.

A further assay deals with human neutrophils. Briefly: MPO secretion from isolated human neutrophils stimulated with PMA+8-Br-cGMP. It is filed as cell-based. The procedure:
as §1

Assay [1] deals with ozone-induced neutrophil migration into the airways. As to the kind of experiment: Mouse model of ozone-induced COPD (BAL analysis). The conditions noted are these: for % Neutrophils found in BAL fluid: intratracheal 1.0 mM peptide 30 min before ozone 2 hours (PBS + Ozone 21.4); for IFNγ in BAL fluid: peptide pretreatment then ozone (PBS + ozone approx. 18); for IL-6 in BAL fluid: peptide pretreatment then ozone (PBS + ozone approx. 197); for KC in BAL fluid: peptide pretreatment then ozone (PBS + ozone approx. 240); for % Inhibition of neutrophil migration into BAL fluid: relative to control group treated with PBS. It counts as in vivo. The method, then: Ten-week-old Balb/C female mice were obtained from Charles River laboratories and housed under NIH guidelines in groups of 5 per cage. The animals received standard rodent diet and filtered water ad libitum. Three treatment groups of mice, 5 animals in each group, were each anesthetized by intraperitoneal injection of Ketamine (100 mg/kg) and Xylazine (20 mg/kg) and then pretreated by intratracheal administration with […] of either PBS alone, or a solution of 1.0 mM MANS peptide in PBS, or a solution of a 1.0 mM of a MANS-fragment-peptide designated as SEQ ID NO: 15 (MA-GAQFSKTAAK) in PBS. After 30 minutes, the animals were then placed in the appropriate custom-made chamber for ozone or forced air exposures. The animals were exposed to ozone for 2 hours (at ozone concentrations of 1-10 ppm by a slightly modified method described by Haddad et al, 1995. (Haddad E-B, Salmon M, Sun J, Liu S, Das A, Adcock I, Barnes P J, and Chung K F, FEBS Letters, 363:285-288, 1995). The ozone was generated using an ozone generator apparatus model OL80F/B from OzoneLab, Burton, British Columbia, Canada. Ozone concentration was continuously monitored using a Teledyne Photometric O3 Analyzer (model 400E, Teledyne Instruments, City of Industry, Calif.). Two additional groups of mice, each without any pretreatment, were either exposed to ozone under the same conditions or exposed to forced air under conditions similar to the ozone treatment group but absent ozone. After exposure, the animals were sacrificed by exsanguination and the lungs were serially lavaged 2 times with 1.0 mL aliquots of PBS. The collected bronchoalveolar lavage (BAL) fluid was centrifuged to remove the cells for subsequent counting and differential analysis. Recovered lavage fluid was used for protein and additional analysis of IL-6, IFNγ, and KC (murine IL-8 analog) by ELISA assay (assay kits obtained from R&D Systems, Minneapolis, Minn.).

Assay [2] deals with LPS-primed canine neutrophils. Briefly: MPO secretion from LPS-primed canine neutrophils. It counts as cell-based. The method, then:
(§2) Results-I-11 and Results-I-12 show MPO secretion from LPS-primed human neutrophils as a model for humans, and Results-I-13, Results-I-14, and Results-I-15 show MPO secretion from LPS-primed canine neutrophils as a model for canines. In all of these experiments, isolated neutrophils were stimulated with LPS at a concentration of 1×10^−6 M for 10 minutes at 37° C. prior to adding the stimuli. The LPS primes the cells so they can respond to a secretagogue.
In another comparative experiment, when absorbance was monitored at 450 nm while observing MPO secretion from LPS-primed canine neutrophils, Results-I-13 were obtained as follows.
In another comparative experiment, when absorbance was monitored at 450 nm while observing MPO secretion from LPS-primed canine neutrophils, Results-I-14 were obtained as follows.
In another comparative experiment, when absorbance was monitored at 450 nm while observing MPO secretion from LPS-primed canine neutrophils, Results-I-15 were obtained as follows.
Isolation of PMNs from canine blood—The steps involved in isolating PMN include collecting 10 ml ACD anticoagulated blood; then layering 5 ml on 3.5 ml PMN isolation media while ensuring that the PMN isolation media (IM) was at room temperature (RI). Next, the blood was centrifuged at room temperature for 30′, 550×g at 1700 RPMs. The low lower white band was transferred into a 15 ml conical centrifuge tube (CCFT). Next, 2V HESS with 10% fetal bovine serum […] was added and centrifuged at room temperature for 10′, 400×g at 1400 RPMs. The pellet was then resuspended in 5 ml 1-1ESS with PBS. The cell suspension was added to 50 ml CCFT containing 20 ml of ice cold 0.88% NH4 Cland inverted two to three times. […]
MPO Colorimetric Enzyme Assay—Samples were assayed for MPO activity in 96 well round bottom microtiter plates using a sandwich ELISA kit (R & D Systems, Minneapolis, Minn.). […] After mixing, the assay mixture was incubated at room temperature for 5 minutes, and MPO enzyme activity determined spectrophotometrically at […]. […]

In assay [3] the test system is LPS-primed human neutrophils. As to the kind of experiment: MPO secretion from LPS-primed human neutrophils. It is filed as cell-based. The method, then:
as §2
Thus, in one comparative experiment, when absorbance was monitored at 450 nm while observing MPO secretion from LPS-primed human neutrophils, Results-I-11 were obtained as follows.
In another comparative experiment, when absorbance was monitored at 450 nm while observing MPO secretion from LPS-primed human neutrophils, Results-I-12 were obtained as follows.
MPO Colorimetric Enzyme Assay—Samples were assayed for MPO activity in 96 well round bottom microtiter plates using a sandwich ELISA kit (R & D Systems, Minneapolis, Minn.). Briefly, 20 microliters of sample is mixed with 180 microliters of substrate mixture containing 33 mM potassium phosphate, pH 6.0, 0.56% Triton X-100, 0.11 mM hydrogen peroxide, and 0.36 mM O-Diannisidine Dihydrochloride in an individual microtiter well. […] After mixing, the assay mixture was incubated at room temperature for 5 minutes, and MPO enzyme activity determined spectrophotometrically at 550 nanometers. […]

Where [4] appears, read: peptide 1 μM + 100 nM PMA+10 μM 8-Br-cGMP, unstimulated control 0.10.
Setting [5] is: peptide 10 μM + 100 nM PMA+10 μM 8-Br-cGMP.
Setting [6] is: peptide 1 μM + 100 nM PMA+10 μM 8-Br-cGMP, unstimulated control 0.076.
The mark [7] stands for this setting: peptide 100 μM + 100 nM PMA+10 μM 8-Br-cGMP.

Structures are written as SMILES. Several values for one entry are separate records, joined by “and”; a condition that tells them apart may be missing. Equal values may be shown once. Residues, ends and D or L forms follow the SMILES beside them. *: point of attachment. Myristoyl = CCCCCCCCCCCCCC(=O)*

For the molecule `CCCCCCCCCCCCCC(=O)NCC(=O)N[C@@H](C)C(=O)N[C@@H](CCC(N)=O)C(=O)N[C@@H](Cc1ccccc1)C(=O)N[C@@H](CO)C(=O)N[C@@H](CCCCN)C(=O)N[C@H](C(=O)N[C@@H](C)C(=O)N[C@@H](C)C(=O)N[C@@H](CCCCN)C(=O)NCC(=O)N[C@@H](CCC(=O)O)C(=O)N[C@@H](C)C(=O)N[C@@H](C)C(=O)N[C@@H](C)C(=O)N[C@@H](CCC(=O)O)C(=O)N[C@@H](CCCNC(=N)N)C(=O)N1CCC[C@H]1C(=O)NCC(=O)N[C@@H](CCC(=O)O)C(=O)N[C@@H](C)C(=O)N[C@@H](C)C(=O)N[C@H](C(=O)N[C@@H](C)C(=O)O)C(C)C)[C@@H](C)O` [MANS peptide] (Myristoyl-GAQFSKTAAKGEAAAERPGEAAVA-OH; C-terminus assumed), the “Absorbance at 450 nm (MPO secretion)” value in the assay on canine neutrophils (setting [4]) came to 0.25. Also, in the assay on canine neutrophils (setting [5]), the “Absorbance at 450 nm (MPO secretion)” value worked out at 0.09. Further, in the assay with human neutrophils (setting [6]), the “Absorbance at 450 nm (MPO secretion)” value is 0.102. Besides, the “Absorbance at 450 nm (MPO secretion)” value in the assay on human neutrophils (setting [5]) came out at 0.093. Also, the “Absorbance at 450 nm (MPO secretion)” value in the assay on human neutrophils (setting [7]) came out at 0.068. Besides, in assay [1] (after ozone exposure), the “Diminished IL-6 levels (inhibition) vs. PBS control” value is given as “approximately 85%”, the “Effect on interferon-γ levels” value is recorded as “little effect” and the “Reduced neutrophil cell infiltration in the BAL fluid vs. PBS control” value is listed as 93%±5%. In addition, the “Diminished IL-6 levels (inhibition) vs. PBS control” value in assay [1] (after ozone exposure, listed as MANS) is given as 88%±8%. For the same molecule, in assay [1], the “% Neutrophils found in BAL fluid” value was determined as 1.5%, the “IFNγ in BAL fluid” value is given as “approximately 13 pg/ml”, the “IL-6 in BAL fluid” value is given as “approximately 23 pg/ml” and the “KC in BAL fluid” value is listed as “approximately 60 pg/ml”. Moreover, the “% Inhibition of neutrophil migration into BAL fluid” value in assay [1] is 93.0%.
`CCCCCCCCCCCCCC(=O)O[C@@H]1[C@@H](C)[C@@]2(O)[C@@H](C=C(CO)C[C@]3(O)C(=O)C(C)=C[C@@H]23)[C@@H]2C(C)(C)[C@]12OC(C)=O` [PMA, phorbol 12-myristate 13-acetate]: the “Absorbance reading at 450 nm (MPO secretion)” value in assay [2] (100 nM PMA alone) was 0.078 and 0.0825; in assay [3] (10 nM PMA, medium control 0.15), 0.19.
As for `CCCCCCCCCCCCCC(=O)NCC(=O)N[C@H](C(=O)N[C@@H](C)C(=O)N1CCC[C@H]1C(=O)N[C@@H](C)C(=O)N[C@@H](C)C(=O)N[C@@H](CCC(=O)O)C(=O)NCC(=O)N[C@@H](C)C(=O)NCC(=O)N[C@@H](C)C(=O)N[C@@H](CCC(=O)O)C(=O)N[C@H](C(=O)N[C@@H](CCCCN)C(=O)N[C@@H](CCCNC(=N)N)C(=O)N[C@@H](C)C(=O)N[C@@H](CO)C(=O)N[C@@H](C)C(=O)N[C@@H](CCC(=O)O)C(=O)N[C@@H](C)C(=O)N[C@@H](CCCCN)C(=O)N[C@@H](CCC(N)=O)C(=O)N[C@@H](C)C(=O)N[C@@H](Cc1ccccc1)C(=O)O)C(C)C)[C@@H](C)O` [RNS peptide, reference compound] (Myristoyl-GTAPAAEGAGAEVKRASAEAKQAF-OH; C-terminus assumed), the “Absorbance at 450 nm (MPO secretion)” value in the assay on canine neutrophils (setting [4]) came to 0.32; in the assay with canine neutrophils (setting [5]) it was 0.30; with human neutrophils (setting [6]), 0.099; in the assay with human neutrophils (setting [5]), 0.100; in the assay with human neutrophils (setting [7]), 0.100.
Turning to `CCCCCCCCCCCCCC(=O)NCC(=O)N[C@@H](C)C(=O)N[C@@H](CCC(N)=O)C(=O)N[C@@H](Cc1ccccc1)C(=O)N[C@@H](CO)C(=O)N[C@@H](CCCCN)C(=O)N[C@H](C(=O)N[C@@H](C)C(=O)N[C@@H](C)C(=O)N[C@@H](CCCCN)C(=O)O)[C@@H](C)O` [SEQ ID NO: 15, N-myristoyl-GAQFSKTAAK] (Myristoyl-GAQFSKTAAK-OH; C-terminus assumed), in assay [1] (after ozone exposure), the “Diminished IL-6 levels (inhibition) vs. PBS control” value was 75%±8% and ~75%; the “Diminished KC concentrations (inhibition) vs. PBS control” value is 38%±5% and ~40%; the “Effect on interferon-γ levels” value is “little effect”; the “Reduced neutrophil cell infiltration in the BAL fluid vs. PBS control” value is reported as 47.7%±5%. In assay [1], the “% Neutrophils found in BAL fluid” value worked out at 11.2%, the “IFNγ in BAL fluid” value is “approximately 9 pg/ml”, the “IL-6 in BAL fluid” value is reported as “approximately 49 pg/ml” and the “KC in BAL fluid” value was “approximately 147 pg/ml”. In addition, in assay [1], the “% Inhibition of neutrophil migration into BAL fluid” value was 47.7%.
As to `Nc1nc2c(nc(Br)n2[C@@H]2O[C@@H]3COP(=O)(O)O[C@H]3[C@H]2O)c(=O)[nH]1` [8-Br-cGMP], the “Absorbance reading at 450 nm (MPO secretion)” value in assay [2] (8-Br-cGMP 1 micromolar alone) is given as “approximately 0.078”; in assay [2] (8-Br-cGMP 10 micromolar alone), “approximately 0.0835”; in assay [3] (cGMP alone, concentration not given) it was 0.155.
